# Columns and labels:
# CHO cells = assay: Stable cell lines, IgG batch titer by ELISA (Example 5); type: cell-based, Chinese Hamster; details: 0.5 mmol/l final VPA; stable mass culture; 5 days after VPA addition
# HEK293E cells = assay: Multiple VPA additions, IgG batch titer by ELISA (Example 3); type: cell-based, Human; details: day 10 after transfection
# Protocol: 10 million suspension-adapted HEK293E cells were resuspended in 0.5 ml of Ex-Cell 293 HEK 293 serum-free medium with 4 mmol/l L-glutamine (Cat. No. 14571C-[…]; Lot No. 6A0093; SAFC Biosciences, Lenexa, Kans., USA, “Ex-Cell” medium; note: “Ex-Cell” medium-as used herein-refers to a medium comprising 4 mmol/l L-glutamine) in a 50-ml filter tube each (TPP AG, Trasadingen, Switzerland; Cat. No. 87050, Lot 20050174). In a separate set, 10 million suspension-adapted CHO DG44 cells were resuspended in 0.5 ml of ProCHO5 serum-free medium with 4 mmol/[…] hypoxanthine and 0.194 g/l thymidine (BioWhittaker (Lonza), Belgium; Cat. No. BE12-[…]; Lot No. 7 MB0040; “ProCHO5” medium; note: “ProCHO5” medium-as used herein-refers to a medium comprising 4 mmol/[…] hypoxanthine and 0.194 g/l thymidine) in a 50-ml filter tube each (TPP AG, Trasadingen, Switzerland; Cat. No. 87050, Lot 20050174). Then 12.5 μg plasmid DNA at a concentration of 1 μg/μl was added in each tube with the following composition 50% (6.25 μg) p-LC (SEQ ID NO: 1) 50% (6.25 μg) p-HC (SEQ ID NO: 3). Plasmid p-LC comprises the genetic information for the production of the light chain of an IgG antibody, plasmid p-HC comprises the genetic information for the production of the heavy chain of an IgG antibody. The particular vector constructs used in the present invention can also be obtained from the inventors. The inventors can be contacted via e-mail at […]. […] In short, Goat anti-human kappa light chain IgG (Biosource) was used for coating the ELISA-plates, and with AP-conjugated goat anti-human gamma chain IgG (Biosource) the synthesized IgG1 was detected. […] Absorption was measured at 405 nm against 490 nm using a microplate reader (SPECTRAmaxTM340; Molecular Devices, Palo Alto, Calif., USA).
structure (smiles),measurement,setting,value
"CCCC(CCC)C(=O)O [VPA, valproic acid]",Batch titer CHO,CHO cells,35.5 ± 2.5 mg/L
same,Batch titer,HEK293E cells; 4 mmol/l VPA at day 0,193 mg/L
same,"batch titers, direct addition versus slowly increasing concentration",HEK293E cells,statistically not different
same,Batch titer,"HEK293E cells; escalating dosage, 1 to 4 mmol/l in 1 mmol/l increments every other day",182 mg/L

# Reference: patent publication US20090023186A1, “USE OF VALPROIC ACID FOR ENHANCING PRODUCTION OF RECOMBINANT PROTEINS IN MAMMALIAN CELLS” (EXCELLGENE SA, priority 2007, published 2009)
